Experimental data from paper PMC12040169 (PLOS Biology, 2025).

Legend:
[1] = system: T1, CTL2-GFP (C. trachomatis L2/434/Bu, GFP-expressing); test: microbe, parasite or virus in culture; parameters: Intracellular C. trachomatis growth in HeLa cells, bulk GFP fluorescence relative to DMSO; conditions: Chlamydia trachomatis, HeLa, 28.5 h; bulk GFP, mean of 2; read-out: % of control remaining
T1 construct: L2/434/Bu, GFP-expressing
Procedure: MICs were calculated as described above.

[2] = system: T2, C. trachomatis L2/434/Bu expressing GFP (CTL2-GFP); test: microbe, parasite or virus in culture; parameters: C. trachomatis total inclusion area by high-content imaging, normalised to DMSO; conditions: Chlamydia trachomatis, HeLa, 28.5 h; total inclusion area; read-out: % of control remaining
T2 construct: L2/434/Bu GFP intracellular growth in HeLa cells
Description: We screened a library of 36,785 small molecules displaying drug-like properties and covering a wide chemical space (Fig 1A and S2A Data). In this process, we also complemented the assay described above with an imaging-based readout (Fig 1B). After measurements of bulk GFP and resorufin fluorescence, cells were fixed, stained with the DNA dye Hoechst, and imaged at a high-content imaging platform to detect chlamydial inclusions (GFP) and host cell nuclei (Hoechst). The total area and number of inclusions in individual wells and the number of nuclei then served as additional proxies for chlamydial growth and host cell viability. […] MICs were calculated as described above.

in vitro = test: in vitro; parameters: Viability of infected HeLa host cells, resazurin conversion, bulk resorufin fluorescence relative to DMSO; conditions: human, hela cells; bulk resorufin, mean of 2

SMILES | activity at 1 µM [1] [%] | activity at 5 µM [1] [%] | activity at 10 µM [1] [%] | activity at 1 µM [2] [%] | activity at 5 µM [2] [%] | activity at 10 µM [2] [%] | viability at 28.5 h, 1 µM (in vitro) [%] | viability at 28.5 h, 5 µM (in vitro) [%] | viability at 28.5 h, 10 µM (in vitro) [%]
O=C(Nc1ccc(F)cc1)c1[nH]c2ccccc2c1NS(=O)(=O)c1cc(Cl)sc1Cl [CBK050094] | 151 | 124 | 118 | 126 | 99.9 | 62.7 | 90 | 96.8 | 86.9
COc1ccc([C@@]23CC=C(N(Cc4ccccc4)C(=O)Nc4ccc(F)c(F)c4)C[C@@H]2N(C)CC3)cc1OC [CBK050179] | 105 | 86.7 | 69.8 | 62.1 | 80.2 | 52.4 | 93.3 | 95 | 112
O=S(=O)(Nc1ccc(C(F)(F)F)cc1Cl)c1cc(Br)c(Cl)s1 [CBK057196] | 142 | 108 | 69.6 | 114 | 75.1 | 57.9 | 90.4 | 93.1 | 88.2
Cc1cc(C)c2c(N)c(C(=O)Nc3ccc(Br)cc3)sc2n1 [CBK072019] | 107 | 95.1 | 100 | 98.4 | 59.7 | 91 | 97.9 | 98.9 | 106
COc1cccc(CNc2ccc(N3CCOCC3)cc2)c1OCc1ccccc1F [CBK074406] | 135 | 97.1 | 65.4 | 130 | 63.6 | 41.5 | 86.4 | 83.8 | 90.9
COc1ccc([C@@]23CC[C@@H](NC(=O)c4ccc(-c5ccccc5)cc4)CC2N(C)CC3)cc1OC (stereo partly drawn) [CBK074973T] | 113 | 78.4 | 39.7 | 118 | 93.3 | 31.1 | 93.9 | 94.3 | 87.1
CC(C)(C)c1cc(C(=O)Nc2ccncc2)n(Cc2ccc(Cl)cc2Cl)n1 [CBK107284] | 116 | 74.6 | 24.2 | 117 | 57.8 | 39.7 | 94.9 | 94 | 97.3
O=[N+]([O-])c1cc([N+](=O)[O-])c2cccnc2c1NNc1nncc2ccccc12 [CBK110409] | 107 | 69 | 22.1 | 108 | 63.9 | 31 | 93 | 89.1 | 86.6
Cc1ccc(C(=O)NCCCN2CCC3(CC2)OCCc2c3[nH]c3ccccc23)cc1 [CBK113485] | 114 | 80 | 21.4 | 88.7 | 33.7 | 5.52 | 86.4 | 88 | 78.1
CN(C)CCCNC(=O)Nc1cccc(-c2nc(-c3ccc(C#N)cc3)cnc2N)c1 [CBK116287] | 102 | 71.8 | 14.2 | 116 | 66.5 | 4.68 | 104 | 89.1 | 97.5
COC(=O)CCc1ccc(-c2cnc(N)c(-c3ccc(O)cc3)n2)cc1 [CBK122809] | 122 | 108 | 93.5 | 92.1 | 83.5 | 80.2 | 114 | 118 | 113
CCNC(=O)N1CC2(CCN(Cc3nc4ccccc4[nH]3)CC2)c2ccccc21 [CBK126693] | 115 | 120 | 109 | 74.5 | 89.8 | 65 | 100 | 94.1 | 96.7
